Entries after “also recorded” stand apart in the source; their conditions may differ.
Key:
[1] = tested on: H4; assay: Cell viability assay (PTX dose response, CellTiter Glo) in glioma cell lines; type: cell-based, human; conditions: H4 glioma cell line, PTX dose response curve
Description: GBM cells were seeded at a density of 5000 cells per well in a 96 well plate. One day after seeding, cells were checked for attachment and confluence (60-70%). […] 72 hours later cell viability was determined by CellTiter Glo (Promega).

[2] = tested on: H4 SSR3 KO and control cells; assay: Microtubule polymerization, alpha-tubulin immunofluorescence in H4 cells; type: cell-based, human; conditions: PTX 0.5 μM, 48 h
Description: H4 SSR3 knockout and non-targeting control cells were grown on glass coverslips. […] The cells were then stained with α-tubulin and SSR3 antibodies at 1:100 dilution and the images were acquired on the Nikon A1 (C) confocal microscope. Microtubule bundles per cell cluster were counted for the analysis.

[3] = mice, systemic delivery of ABX; cited from earlier work
[4] = pharmacologic data and clinical investigations; cited from earlier work

In the case of CC(=O)O[C@H]1C(=O)[C@@]2(C)[C@H]([C@H](OC(=O)c3ccccc3)[C@]3(O)C[C@H](OC(=O)[C@H](O)[C@@H](NC(=O)c4ccccc4)c4ccccc4)C(C)=C1C3(C)C)[C@]1(OC(C)=O)CO[C@@H]1C[C@@H]2O [PTX, Paclitaxel], the “sensitivity to PTX among glioma cell lines” value [1] is given as “most sensitive; also recorded: highest degree of sensitivity”, the “effect on microtubule polymerization” value [2] is given as “stabilization of microtubule polymerization” and the “enhancement of brain penetration of PTX by ultrasound therapy” value [3] is given as 3-5 fold. The “crossing of the BBB” value [4] was “does not cross the BBB”.

Reference: patent US20240294988A1, “METHODS OF DETERMINING RESPONSIVENESS TO CHEMOTHERAPEUTIC COMPOUNDS FOR CANCER THERAPY” (Northwestern University, priority 2021, published 2024)
